Source: the NIST ThermoML archive (doi:10.1021/je0502400)

Columns and labels:
[1] = molar heat capacity at constant pressure; mn = molality of the nth substance listed, in mol/kg; conditions: 298.15 K, 101 kPa, Liquid, Flow calorimetry
[2] = mn = molality of the nth substance listed, in mol/kg; conditions: 298 K, 101 kPa, Liquid

O=C([O-])CCC(=O)[O-].[Na+].[Na+] [disodium succinate] + O
Conditions | mass density, [2] [kg/m3] | molar heat capacity at constant pressure, [1] [J/K/mol]
m1 = 0.009952 | 998.141 | 75.32
m1 = 0.02038 | 999.243 | 75.31
m1 = 0.04187 | 1001.53 | 75.28
m1 = 0.06054 | 1003.53 | 75.26
m1 = 0.1003 | 1007.7 | 75.22
m1 = 0.2003 | 1018 | 75.2
m1 = 0.3001 | 1028.05 | 75.23
m1 = 0.5006 | 1047.46 | 75.44
m1 = 0.7497 | 1070.41 | 75.93
m1 = 1 | 1092.29 | 76.61
m1 = 1.494 | 1132.32 | 78.38
m1 = 1.999 | 1169.44 | 80.61

O=C([O-])C(=O)[O-].[K+].[K+] [potassium oxalate] + O
Conditions | mass density, [2] [kg/m3] | molar heat capacity at constant pressure, [1] [J/K/mol]
m1 = 0.01029 | 998.319 | 75.17
m1 = 0.01993 | 999.506 | 75
m1 = 0.03995 | 1001.9 | 74.67
m1 = 0.06118 | 1004.41 | 74.34
m1 = 0.1011 | 1009.21 | 73.71
m1 = 0.1971 | 1020.46 | 72.27
m1 = 0.2996 | 1032.09 | 70.86
m1 = 0.501 | 1054.2 | 68.3
m1 = 0.7483 | 1080.17 | 65.5
m1 = 0.9987 | 1105.27 | 63
m1 = 1.197 | 1124.39 | 61.21
m1 = 1.396 | 1142.79 | 59.54
m1 = 1.497 | 1151.71 | 58.76

[Cl-].[Na+] [sodium chloride] + O
Conditions | mass density, m1 = 0.9998 [kg/m3] | mass density, m1 = 1.999 [kg/m3] | mass density, m1 = 3 [kg/m3] | molar heat capacity at constant pressure, m1 = 0.9998 [J/K/mol] | molar heat capacity at constant pressure, m1 = 1.999 [J/K/mol] | molar heat capacity at constant pressure, m1 = 3 [J/K/mol]
[1] | – | – | – | 73.34 | 72.23 | 71.74
[2] | 1036.18 | 1072.22 | 1105.7 | – | – | –

O=C([O-])CC(=O)[O-].[Na+].[Na+] [sodium malonate] + O
Conditions | mass density, [2] [kg/m3] | molar heat capacity at constant pressure, [1] [J/K/mol]
m1 = 0.0102 | 998.203 | 75.19
m1 = 0.02019 | 999.271 | 75.06
m1 = 0.04023 | 1001.44 | 74.8
m1 = 0.05997 | 1003.61 | 74.54
m1 = 0.09952 | 1007.82 | 74.04
m1 = 0.2049 | 1018.85 | 72.81
m1 = 0.3005 | 1028.55 | 71.8
m1 = 0.4985 | 1048.21 | 69.9
m1 = 0.7356 | 1070.79 | 68.01
m1 = 0.9746 | 1092.13 | 66.27
m1 = 1.481 | 1134.8 | 63.33
m1 = 1.995 | 1173.58 | 61.03
m1 = 2.993 | 1241.78 | –
m1 = 3.991 | 1296.36 | –

O=C([O-])C(=O)[O-].[Na+].[Na+] [sodium oxalate] + O
Conditions | mass density, [2] [kg/m3] | molar heat capacity at constant pressure, [1] [J/K/mol]
m1 = 0.009986 | 998.164 | 75.31
m1 = 0.01989 | 999.268 | 75.27
m1 = 0.03998 | 1001.48 | 75.22
m1 = 0.0603 | 1003.67 | 75.17
m1 = 0.09999 | – | 75.08
m1 = 0.1502 | 1013.28 | 75
m1 = 0.1996 | 1018.42 | 74.93
m1 = 0.2494 | 1023.55 | 74.88
